Bridge positions count the residues as written; N and C are the ends. Ends that are not written are not given here.
How the values were obtained:
[1] = Induction of anti-peptide and anti-carrier antibodies in immunized mice; format: in vivo
Description: FIGS. 4a, 4b, 4c are representations of induction of the anti-peptide and anti-carrier reponses. Mice were immunized on day 0, 14, 28 and 42. Sera was collected on day 10, 24 and 38. Results are shown for mice immunized with p763.74 (FIG. 4a), pMG22-8-1 (FIG. 4b) and KLH (FIG. 4c). Preimmune sera is indicated as -∘-; reaction against the immunized peptide is indicated as -●-; and reaction against peptide not used for immunization is indicated as -Δ-.
Mice were immunized with pMG22-8-1, p763.74 peptides or KLH. Sera was tested on day 10, 24 and 38. […] In the group immunized with pMG22-8-1, the titer of antibodies reacting against the GD3 peptide mimic is observed.

mAb MG22 = assay: Inhibition of binding of anti-GD3 mAb MG22 to GD3+ Melur melanoma cells by peptide mimic
Description: (§1) FIGS. 2a, 2b and 2c are representations of inhibition of binding of anti-GD3 monoclonal antibody to GD3+ cells by peptide mimics of the present invention. Data is shown for pMG21-15-1 (FIG. 2a), pMG21-8-4 (FIG. 2b) and pMG22-8-1 (FIG. 2c) for inhibition of binding of mAb MG22 (-∘-); mAb MG21 (-●-) and mAb 763.74 (-Δ-).
FIG. 3 is a representation of the effect of dithiothrietol (DTT) on inhibition of MG22 binding to GD2/3+Melur cells by […]. […] This inhibitory effect was abolished by the pre-incubation of pMG22-8-1 with 10 mM DTT (—SH), confirming that the inhibitory peptide was in its cyclized form (-S-S-). 763.74, a monoclonal antibody that recognizes another melanoma-associated antigen—the High Molecular Weight-Melanoma Associated Antigen (HMW-MAA), is used here as an irrelevant antibody to show the binding specificity of GD2/3 peptide mimic pMG22-8-1 for mAb MG22; and p763.74 is a HMW-MAA peptide mimic isolated using the mAb 763.74. It is used here as an irrelevant peptide mimic to show the binding specificity of the GD3-specific mAb MG22 for pMG22-8-1.
(§2) For further characterization, the pVIII gene inserts of positive phage clones identified by reverse ELISA were sequenced. Peptides encoded by these sequences were synthesized and then tested for GD3 specificity. This was done by assessing the peptides' ability to compete with MG21 or MG22 for binding to GD3-bearing melanoma cell line in vitro.
(§3) Cyclized pMG21-15-1, pMG21-8-4 and pMG22-8-1 were tested for inhibiting the binding of the anti-GD2 mAb to Melur melanoma cells.
The effect of 10 mM DTT on the inhibition of binding of anti-GD3 mAb to GD3+ cells was investigated.

[2] = system: GD3 positive (Melur) cells; assay: Reactivity of sera from immunized mice to GD3 positive (Melur) versus GD3 negative (LG2) cells by ELISA; format: in vivo; conditions: following two immunizations, Melur vs LG2 cells, sera day 24 and 38
Description: FIGS. 5a and 5b are representations of the selective reactivity of sera from mice immunized with GD3 peptide mimic pMG22-8-1. Immunizations were carried out on […], day 14, day 28 and day 42. Serum samples were collected on day 24 and day 38 and tested for binding to GD3 positive or negative cells. Results are shown for a peptide mimic according to the present invention (pMG22-8-1; FIG. 5b) and control peptide (p763.74; FIG. 5a).
Mice were immunized with peptide pMG22-8-1 (SEQ ID NO:6) on days 0, 14, 28 and 42. Sera was collected on days 24 and 38. The sera was tested for reactivity to GD3 positive (Melur) cells compared with GD3 negative cells (LG2) by ELISA.

mAb MG21 = assay: Inhibition of binding of anti-GD3 mAb MG21 to GD3+ Melur melanoma cells by peptide mimic; conditions: cyclized peptide; FIG. 2a, 2b
Description: as §1, §2, §3

[3] = target: anti-GD3 monoclonal antibody MG22; assay: inhibition of mAb MG22 binding to GD2/3+ Melur melanoma cells by cyclized peptide, at 500 µM peptide

MCPTDMPASLCM (disulfide 2-11 (inferred)) [pMG22-8-1, GD3 peptide mimic isolated using MG22 from LX-8 phage library]
titer of non-specific antibodies reacting to p763.74 (peptide not used for immunization) ([1]; group immunized with pMG22-8-1, FIG. 4b): increase | titer of serum antibodies reacting to the immunogen ([1]; mice immunized day 0, 14, 28, 42, sera day 10, 24, 38): high titer | inhibition of mAb MG22 binding to GD3+ cells after pre-incubation of the peptide with DTT (mAb MG22; 10 mM DTT (reduced, non-cyclized peptide)): abolished | inhibition of binding of MG22 to Melur cells (mAb MG22; at 500 μM peptide, GD2/3+ Melur cells, dose-dependent): up to 72% | inhibition of binding of panning mAb MG22 to Melur melanoma cells (mAb MG22; cyclized peptide, FIG. 2c): inhibited in a specific and dose-dependent manner | mice whose serum reacted selectively to GD3 positive cell line [2]: one out of eight mice

QPFPCYSNAPCQSPS (not fully specified (bridges); cysteine pairing not given here) [pMG21-15-1, GD3 peptide mimic isolated using MG21 from X15 phage library]
inhibition of binding of panning mAb MG21 to Melur melanoma cells (mAb MG21): inhibited in a specific and dose-dependent manner

RCPPEYVAADCD (disulfide 2-11 (inferred)) [pMG21-8-4, GD3 peptide mimic isolated using MG21 from LX-8 phage library]
inhibition of binding of panning mAb MG21 to Melur melanoma cells (mAb MG21): inhibited in a specific and dose-dependent manner

MCPTDMPASLCM (disulfide 2-11 (inferred)) [pMG22-8-1]
% inhibition of MG22 binding to Melur cells [3]: 72%
